Several values for one entry are separate records, joined by “and”; a condition that tells them apart may be missing. Equal entries are not always repeated.
What was measured:
[1] = tested on: A. baumannii (derived from ATCC ® 19606 ™); test: Bacteriostasis, log reduction; format: cell-based; settings: A. baumannii ATCC 19606
Procedure: (§1) In order to assess the log reduction capabilities of compounds of Formula (1), testing was performed on organisms that are found in acute and chronic wounds. Triplicate tubes were prepared for each bacteria using 50 μL of inoculum (about 1×10^6 CFU/mL) which was added to 450 μL of compound solution (compound of Formula (I)) (or 100 μL of inoculum in 900 μL of compound solution), resulting in a final inoculum of about 1×10^5 CFU/mL, as shown in Table 4.
(§2) Tubes were mixed with a vortex and then incubated in a shaking incubator at 175 RPM and 35° C. to 37° C.
(§3) Positive control in Tables 5a and 5b was 1 mL of 0.89% saline with 1 mL of the 1×10^6 CFU/mL of the organism.
(§4) For Compounds 1, 7, 8, 10, and 18 in Tables 6, 7-A, 7-B, 8, 9, 10-A, 10-B, and 11: The compound solutions were prepared with compound (30 mg), polysorbate 20 (1.6 mL), butylene glycol (1.6 mL), phosphatidyl choline (0.66 g), ethanol (1.6 mL), hydroxypropyl cellulose (0.26 g), and ultra pure water (24.9 mL).
(§5) XAV939 Control in Table X1 was XAV939 (30 mg), polysorbate 20 (1.6 mL), butylene glycol (1.6 mL), phosphatidyl choline (0.66 g), ethanol (1.6 mL), ultra pure water (24.9 mL), and hydroxypropyl cellulose (0.26 g).
(§6) GO-HA Control in Table X2 was GO-HA (30 mg), polysorbate 20 (1.6 mL), butylene glycol (1.6 mL), phosphatidyl choline (0.66 g), ethanol (1.6 mL), ultra pure water (24.9 mL), and hydroxypropyl cellulose (0.26 g).
(§7) For Compound 18+GO-HA in Tables 6 and X4: compound 18 (45 mg), GO-HA (45 mg), polysorbate 20 (2 mL), butylene glycol (2 mL), phosphotidyl choline (0.5 g), ethanol (2 mL), hydroxypropyl cellulose (0.40 g), and ultra pure water (40 mL).
(§8) For XAV939+GO-HA in Tables 6 and X3-A, and X3-B: XAV939 (45 mg), GO-HA (45 mg), butylene glycol (2 mL), polysorbate 20 (2 mL), phosphotidyl choline (0.5 g), ethanol (2 mL), hydroxypropyl cellulose (0.40 g), and ultra pure water (40 mL).
(§9) Testing was performed at two time points: 18 to 24 hours, and […].

[2] = tested on: E. coli (derived from ATCC ® 25922 ™); test: Bacteriostasis, log reduction; format: cell-based; settings: E. coli ATCC 25922
Procedure: as §1, §2, §3, §4, §5, §6, §7, §8, §9

[3] = tested on: E. coli (derived from ATCC ® 8739 ™); test: Bacteriostasis, log reduction; format: cell-based; settings: E. coli ATCC 8739
Procedure: as §1, §2, §3, §4, §5, §6, §7, §8, §9

[4] = tested on: K. pneumoniae (derived from ATCC ® 10031 ™); test: Bacteriostasis, log reduction; format: cell-based; settings: K. pneumoniae ATCC 10031
Procedure: as §1, §2, §3, §4, §5, §6, §7, §8, §9

[5] = tested on: P. aeruginosa (derived from ATCC ® 15442 ™); test: Bacteriostasis, log reduction; format: cell-based; settings: P. aeruginosa ATCC 15442
Procedure: as §1, §2, §3, §4, §5, §6, §7, §8, §9

[6] = tested on: P. aeruginosa (derived from ATCC ® 9027 ™); test: Bacteriostasis, log reduction; format: cell-based; settings: P. aeruginosa ATCC 9027
Procedure: as §1, §2, §3, §4, §5, §6, §7, §8, §9

[7] = tested on: P. vulgaris (derived from ATCC ® 8427 ™); test: Bacteriostasis, log reduction; format: cell-based; settings: P. vulgaris ATCC 8427
Procedure: as §1, §2, §3, §4, §5, §6, §7, §8, §9

[8] = tested on: S. epidermidis (derived from ATCC ® 14990 ™); test: Bacteriostasis, log reduction; format: cell-based; settings: S. epidermidis ATCC 14990
Procedure: as §1, §2, §3, §4, §5, §6, §7, §8, §9

[9] = tested on: S. pyogenes (derived from ATCC ® 19615 ™); test: Bacteriostasis, log reduction; format: cell-based; settings: S. pyogenes ATCC 19615
Procedure: as §1, §2, §3, §4, §5, §6, §7, §8, §9

new porcine skin = test: Elasticity of healed wound; format: in vivo; settings: day 21
Procedure: Additional tests were performed including elasticity (Table 12); max force (Table 13); tensile strength (strain) (Table 14); energy peak (Table 15); rete-ridge formation; and collagen organization (plane polarized light) (FIG. 24) of the healed wound sites, described as follows.
A is saline (control), B is serum formulation (vehicle), C is GO-HA (vehicle), D is Compound 1; E is Compound 1+GO-HA; F is Compound 8; G is Compound 8+GO-HA; H is Compound 10; and J is Compound 10+GO-HA.
Elasticity (N/mm) is the ability of a material to return to its original shape after stress has been removed. All compounds of Formula (I) tested with or without GO-HA ranged from 33% to 99% improvement in elasticity compared to the saline control.

O=c1[nH]c(-c2ccc(-c3ccc(B(O)O)cc3)cc2)nc2c1CSCC2 [Compound 10, (4′-(4-oxo-3,5,7,8-tetrahydro-4H-thiopyrano[4,3-d]pyrimidin-2-yl)-[1,1′-biphenyl]-4-yl)boronic acid]
Average result ([1]; 24 h): <200
Log Reduction ([1]; 24 h): >3.0
Log Value ([1]; 24 h): <2.3
Average result ([1]; 72 h): <200
Log Reduction ([1]; 72 h): >3.0
Log Value ([1]; 72 h): <2.3
Average result ([2]; 24 h): <200
Log Reduction ([2]; 24 h): >3.1
Log Value ([2]; 24 h): <2.3
Average result ([2]; 72 h): <200
Log Reduction ([2]; 72 h): >3.1
Log Value ([2]; 72 h): <2.3
Average result ([3]; 24 h): <200
Log Reduction ([3]; 24 h): >3.2
Log Value ([3]; 24 h): <2.1
Average result ([3]; 72 h): 6.0 × 10^2
Log Reduction ([3]; 72 h): 2.5
Log Value ([3]; 72 h): 2.8
Average result ([4]; 24 h): <200
Log Reduction ([4]; 24 h): >2.5
Log Value ([4]; 24 h): <2.3
Average result ([4]; 72 h): <200
Log Reduction ([4]; 72 h): >2.5
Log Value ([4]; 72 h): <2.3
Average result ([5]; 24 h): <200
Log Reduction ([5]; 24 h): >3.1
Log Value ([5]; 24 h): <2.3
Average result ([5]; 72 h): <200
Log Reduction ([5]; 72 h): >3.1
Log Value ([5]; 72 h): <2.3
Average result ([6]; 24 h): <200
Log Reduction ([6]; 24 h): >3.0
Log Value ([6]; 24 h): <2.3
Average result ([6]; 72 h): <200
Log Reduction ([6]; 72 h): >3.0
Log Value ([6]; 72 h): <2.3
Average result ([7]; 24 h): <200
Log Reduction ([7]; 24 h): >3.6
Log Value ([7]; 24 h): <2.3
Average result ([7]; 72 h): <200
Log Reduction ([7]; 72 h): >3.6
Log Value ([7]; 72 h): <2.3
Average result ([8]; 24 h): 1.1 × 10^4
Log Reduction ([8]; 24 h): 0.8
Log Value ([8]; 24 h): 4.0
Average result ([8]; 72 h): 3.3 × 10^2
Log Reduction ([8]; 72 h): 2.3
Log Value ([8]; 72 h): 2.5
Average result ([9]; 24 h): <200
Log Reduction ([9]; 24 h): >3.2
Log Value ([9]; 24 h): <2.3
Average result ([9]; 72 h): <200
Log Reduction ([9]; 72 h): >3.2
Log Value ([9]; 72 h): <2.3
improvement in elasticity compared to the saline control (new porcine skin): 91%
Elasticity, Mean (new porcine skin; topical): 53.682 N/mm
Elasticity, individual values (new porcine skin; topical): 43.004 N/mm and 52.568 N/mm and 74.191 N/mm and 44.962 N/mm
